Results from US20250361230A1, “LATS Inhibitors and Uses Thereof” (The USA, as Represented by the Secretary, Dept. of Heath …, priority 2022, published 2025).

Key:
Assay type in all cases: biochemical
LATS2 = molecular target: T1, LATS2 (Homo sapiens, UniProt Q9NRM7); experiment: RBC HotSpot kinase assay (33P-ATP, P81 filter-binding), LATS2; details: Table 28, biochemical kinase assay; read-out: LATS2 IC50
T1 sequence (Q9NRM7 1-1088): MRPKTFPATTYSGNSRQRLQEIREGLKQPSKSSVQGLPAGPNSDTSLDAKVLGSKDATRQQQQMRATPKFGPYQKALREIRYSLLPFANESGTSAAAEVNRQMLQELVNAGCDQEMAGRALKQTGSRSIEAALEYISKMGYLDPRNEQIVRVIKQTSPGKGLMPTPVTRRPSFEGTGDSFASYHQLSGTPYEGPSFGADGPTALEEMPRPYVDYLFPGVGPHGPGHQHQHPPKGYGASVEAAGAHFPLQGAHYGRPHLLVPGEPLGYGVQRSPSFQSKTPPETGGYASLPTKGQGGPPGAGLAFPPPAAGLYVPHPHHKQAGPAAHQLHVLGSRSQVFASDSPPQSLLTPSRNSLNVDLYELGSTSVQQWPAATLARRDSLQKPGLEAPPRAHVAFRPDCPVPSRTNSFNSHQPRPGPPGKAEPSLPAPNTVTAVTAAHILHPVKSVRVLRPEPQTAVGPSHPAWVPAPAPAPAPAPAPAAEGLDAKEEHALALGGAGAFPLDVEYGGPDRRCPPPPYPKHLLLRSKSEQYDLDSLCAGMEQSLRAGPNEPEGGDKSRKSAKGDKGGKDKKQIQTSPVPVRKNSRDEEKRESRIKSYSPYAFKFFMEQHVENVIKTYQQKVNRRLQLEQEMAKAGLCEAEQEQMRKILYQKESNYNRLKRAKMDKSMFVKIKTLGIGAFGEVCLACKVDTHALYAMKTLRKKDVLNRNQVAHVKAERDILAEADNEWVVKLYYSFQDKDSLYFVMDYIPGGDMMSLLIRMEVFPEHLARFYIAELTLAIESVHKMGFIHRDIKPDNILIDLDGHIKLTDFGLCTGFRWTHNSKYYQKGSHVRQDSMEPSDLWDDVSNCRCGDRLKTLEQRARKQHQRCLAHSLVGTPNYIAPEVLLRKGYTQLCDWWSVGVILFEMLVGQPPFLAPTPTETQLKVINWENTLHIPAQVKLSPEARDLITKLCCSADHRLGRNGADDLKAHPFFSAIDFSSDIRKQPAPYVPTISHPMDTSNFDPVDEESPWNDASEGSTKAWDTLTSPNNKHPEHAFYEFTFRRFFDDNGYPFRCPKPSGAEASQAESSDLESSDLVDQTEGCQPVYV
Method in brief: (§1)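 IC50 in nM was derived from 10-point, single-replicate titrations. Read-out was radiometric P81 filter binding following a 2 h room-temperature reaction with 33P-ATP, after 20 min compound preincubation.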

AKT = AKT (Homo sapiens, UniProt P31749); experiment: RBC HotSpot kinase assay (33P-ATP, P81 filter-binding), AKT; details: Table 28, biochemical kinase assay; read-out: AKT IC50
Method in brief: as §1

LATS1 = molecular target: T2, LATS1 (Homo sapiens, UniProt O95835); experiment: RBC HotSpot kinase assay (33P-ATP, P81 filter-binding), LATS1; details: Table 28, biochemical kinase assay; read-out: LATS1 IC50
T2 sequence (O95835 1-1130): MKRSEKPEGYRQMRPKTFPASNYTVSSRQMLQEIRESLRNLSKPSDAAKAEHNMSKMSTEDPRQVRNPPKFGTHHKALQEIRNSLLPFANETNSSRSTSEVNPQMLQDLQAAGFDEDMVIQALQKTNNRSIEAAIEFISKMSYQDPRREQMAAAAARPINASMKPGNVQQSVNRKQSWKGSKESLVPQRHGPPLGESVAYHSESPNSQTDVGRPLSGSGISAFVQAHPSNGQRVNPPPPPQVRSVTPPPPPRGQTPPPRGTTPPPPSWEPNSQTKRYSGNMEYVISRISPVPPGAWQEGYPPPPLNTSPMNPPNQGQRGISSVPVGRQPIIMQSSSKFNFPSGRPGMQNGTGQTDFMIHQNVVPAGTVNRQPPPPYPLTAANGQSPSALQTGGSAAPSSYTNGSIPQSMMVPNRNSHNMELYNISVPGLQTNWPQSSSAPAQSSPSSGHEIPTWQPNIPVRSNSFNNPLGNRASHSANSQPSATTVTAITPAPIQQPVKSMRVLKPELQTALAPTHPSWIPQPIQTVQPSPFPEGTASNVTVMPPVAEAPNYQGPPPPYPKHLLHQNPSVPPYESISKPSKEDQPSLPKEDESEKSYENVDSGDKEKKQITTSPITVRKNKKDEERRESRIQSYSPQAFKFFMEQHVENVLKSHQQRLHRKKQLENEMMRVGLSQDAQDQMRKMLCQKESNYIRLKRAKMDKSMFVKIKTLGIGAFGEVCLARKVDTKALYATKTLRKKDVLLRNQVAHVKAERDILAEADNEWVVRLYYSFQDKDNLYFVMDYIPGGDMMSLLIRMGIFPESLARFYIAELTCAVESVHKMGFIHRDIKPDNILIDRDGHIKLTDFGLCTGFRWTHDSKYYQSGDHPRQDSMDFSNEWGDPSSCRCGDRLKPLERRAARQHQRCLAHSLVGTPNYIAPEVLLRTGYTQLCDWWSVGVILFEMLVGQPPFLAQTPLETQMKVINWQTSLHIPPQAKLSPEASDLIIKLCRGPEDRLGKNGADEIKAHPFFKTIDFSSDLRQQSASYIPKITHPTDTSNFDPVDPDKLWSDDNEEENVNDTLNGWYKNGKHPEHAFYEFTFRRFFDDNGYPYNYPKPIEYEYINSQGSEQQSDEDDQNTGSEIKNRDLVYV
Method in brief: as §1

Chain of AKT (P31749 whole entry): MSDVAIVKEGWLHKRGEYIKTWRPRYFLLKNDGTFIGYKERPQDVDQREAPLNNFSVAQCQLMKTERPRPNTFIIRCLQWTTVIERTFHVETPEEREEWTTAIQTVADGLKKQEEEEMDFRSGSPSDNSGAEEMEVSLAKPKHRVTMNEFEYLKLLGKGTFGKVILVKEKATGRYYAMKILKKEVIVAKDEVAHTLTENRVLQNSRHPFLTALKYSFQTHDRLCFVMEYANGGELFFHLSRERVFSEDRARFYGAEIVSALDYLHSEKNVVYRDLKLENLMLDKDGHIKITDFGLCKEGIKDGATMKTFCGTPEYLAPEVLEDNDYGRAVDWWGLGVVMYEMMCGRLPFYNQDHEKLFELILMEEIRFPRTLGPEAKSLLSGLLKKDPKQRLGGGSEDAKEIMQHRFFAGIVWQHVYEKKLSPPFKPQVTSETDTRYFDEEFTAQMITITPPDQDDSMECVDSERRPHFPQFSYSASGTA

SMILES | IC50 (LATS2) | IC50 (AKT) | IC50 (LATS1)
CC(C)(N)c1ccc(-c2ccnc3[nH]ccc23)cc1-c1ccccc1 [Compound 206, 2-(5-(1H-pyrrolo[2,3-b]pyridin-4-yl)-[1,1′-biphenyl]-2-yl)propan-2-amine] | 74.9 nM | 1620 nM | 10.2 nM
CC(C)(N)c1ccc(-c2ccnc3[nH]cc(Br)c23)cc1-c1ccccc1 [Compound 207, 2-(5-(3-bromo-1H-pyrrolo[2,3-b]pyridin-4-yl)-[1,1′-biphenyl]-2-yl)propan-2-amine] | 9.6 nM | 267 nM | 4 nM
CN(C)C(C)(C)c1ccc(-c2ccnc3[nH]cc(F)c23)cc1 [Compound 208, 2-(4-(3-fluoro-1H-pyrrolo[2,3-b]pyridin-4-yl)phenyl)-N,N-dimethylpropan-2-amine] | 15 nM | 349 nM | 8.3 nM
CN(C)C(C)(C)c1ccc(-c2ccnc3[nH]ccc23)cc1 [Compound 209, 2-(4-(1H-pyrrolo[2,3-b]pyridin-4-yl)phenyl)-N,N-dimethylpropan-2-amine] | 146 nM | 1250 nM | 43 nM
CC(C)(N)c1ccc(-c2ccnc3[nH]cc(Br)c23)cc1 [Compound 210, 2-(4-(3-bromo-1H-pyrrolo[2,3-b]pyridin-4-yl)phenyl)propan-2-amine] | 4.7 nM | 331 nM | 24 nM
COC(=O)c1c[nH]c2nccc(-c3ccc(C(C)(C)N)cc3)c12 [Compound 212, methyl 4-(4-(2-aminopropan-2-yl)phenyl)-1H-pyrrolo[2,3-b]pyridine-3-carboxylate] | 13 nM | 1250 nM | 12 nM
COC(=O)c1c[nH]c2nccc(-c3ccc(CN)c(C)c3)c12 [Compound 213, methyl 4-(4-(aminomethyl)-3-methylphenyl)-1H-pyrrolo[2,3-b]pyridine-3-carboxylate] | 14.7 nM | 832 nM | 7.7 nM
COC(=O)c1c[nH]c2nccc(-c3ccc(CN)c(-c4ccccc4)c3)c12 [Compound 214, methyl 4-(6-(aminomethyl)-[1,1′-biphenyl]-3-yl)-1H-pyrrolo[2,3-b]pyridine-3-carboxylate] | 24 nM | 986 nM | 11 nM
Cc1cc(-c2ccnc3[nH]cc(F)c23)ncc1CN [Compound 215, (6-(3-fluoro-1H-pyrrolo[2,3-b]pyridin-4-yl)-4-methylpyridin-3-yl)methanamine] | 15 nM | 2840 nM | 4.7 nM
COC(=O)c1c[nH]c2nccc(-c3ccc(CN)c(Cl)c3)c12 [Compound 216, methyl 4-(4-(aminomethyl)-3-chlorophenyl)-1H-pyrrolo[2,3-b]pyridine-3-carboxylate] | 19 nM | 823 nM | 11 nM
Cc1cc(-c2ccnc3[nH]ccc23)ncc1CN [Compound 217, (4-methyl-6-(1H-pyrrolo[2,3-b]pyridin-4-yl)pyridin-3-yl)methanamine] | 12 nM | 3160 nM | 8.2 nM
NCc1ccc(-c2ccnc3[nH]ccc23)nc1 [Compound 218, (6-(1H-pyrrolo[2,3-b]pyridin-4-yl)pyridin-3-yl)methanamine] | 130 nM | 4930 nM | 37 nM
CC(C)c1c[nH]c2nccc(-c3ccc(CN)c(-c4ccccc4)c3)c12 [Compound 220, (5-(3-isopropyl-1H-pyrrolo[2,3-b]pyridin-4-yl)-[1,1′-biphenyl]-2-yl)methanamine] | 115 nM | 1010 nM | 236 nM
Cc1cc(-c2ccnc3[nH]cc(F)c23)cc(C)c1CN [Compound 222, (4-(3-fluoro-1H-pyrrolo[2,3-b]pyridin-4-yl)-2,6-dimethylphenyl) methanamine] | 31 nM | 470 nM | 16 nM
C=C(C)c1c[nH]c2nccc(-c3ccc(CN)c(-c4ccccc4)c3)c12 [Compound 224, (5-(3-(prop-1-en-2-yl)-1H-pyrrolo[2,3-b]pyridin-4-yl)-[1,1′-biphenyl]-2-yl)methanamine] | 35 nM | 1150 nM | 73 nM
NCc1ccc(-c2cc(N)nc3[nH]ccc23)cc1 [Compound 225, 4-(4-(aminomethyl)phenyl)-1H-pyrrolo[2,3-b]pyridin-6-amine] | 6420 nM | > 10000 nM | ≥ 10000 nM
CC(C)(N)c1ccc(-c2ccnc3[nH]ccc23)cc1 [Compound 226, 2-(4-(1H-pyrrolo[2,3-b]pyridin-4-yl)phenyl)propan-2-amine] | 1.2 nM | 734 nM | 25.4 nM
NCc1ccc(-c2ccnc3[nH]cc(-c4cccc(C(F)(F)F)c4)c23)cc1 [Compound 227, (4-(3-(3-(trifluoromethyl)phenyl)-1H-pyrrolo[2,3-b]pyridin-4-yl)phenyl) methanamine] | 49.3 nM | 3670 nM | 124 nM
NCc1ccc(-c2ccnc3[nH]cc(-c4cccc(Cl)c4)c23)cc1 [Compound 228, (4-(3-(3-chlorophenyl)-1H-pyrrolo[2,3-b]pyridin-4-yl)phenyl) methanamine] | 14 nM | 1020 nM | 34 nM
Cc1ccccc1-c1c[nH]c2nccc(-c3ccc(CN)cc3)c12 [Compound 229, (4-(3-(o-tolyl)-1H-pyrrolo[2,3-b]pyridin-4-yl)phenyl) methanamine] | 235 nM | 6340 nM | 235 nM
COCCNc1cc(-c2ccnc3[nH]ccc23)ccc1CN [Compound 231, 2-(aminomethyl)-N-(2-methoxyethyl)-5-(1H-pyrrolo[2,3-b]pyridin-4-yl)aniline] | 144 nM | 437 nM | 24 nM
CC(C)c1cc(-c2ccnc3[nH]cc(Cl)c23)ccc1CN [Compound 232, (4-(3-chloro-1H-pyrrolo[2,3-b]pyridin-4-yl)-2-isopropylphenyl) methanamine] | 11.6 nM | 60.5 nM | 3.3 nM
CC(C)c1cc(-c2ccnc3[nH]ccc23)ccc1CN [Compound 233, (2-isopropyl-4-(1H-pyrrolo[2,3-b]pyridin-4-yl)phenyl) methanamine] | 35.5 nM | 281 nM | 5.6 nM
